Where two headings read alike, the source gives them in different places. Blank lines part the entries; values can stand above or below the compound they belong to.
Experiments:
human α-thrombin = human α-thrombin (Homo sapiens, UniProt P00734)
Description: Test procedure: 700 μl of tris buffer, pH 8.2, are incubated with 100 μl of human α-thrombin (0.28 UI) and 100 μl of inhibitor solution at 37° C. for 5 min. After addition of 100 μl of Tos-Gly-Pip-Arg paranitroanilide (c×3 mMol/l), the extinction at 405 nm is measured.

[1] = system: spermatozoal endoprotease acrosin; details: results of Borin et al., Hoppe-Seyler's Z. Physiol. Chem. 362, 1435-1445, 1981; cited from earlier work
F Xa = F Xa (Homo sapiens, UniProt P00742); assay: Inhibitory action against F Xa, analogous procedure (substrate Bzl-Ile-Glu-Gly-Arg pNA); assay type: biochemical; details: final inhibitor concentration 0.6 mmol/1
F Xa, sequence (P00742 235-488 limits assumed): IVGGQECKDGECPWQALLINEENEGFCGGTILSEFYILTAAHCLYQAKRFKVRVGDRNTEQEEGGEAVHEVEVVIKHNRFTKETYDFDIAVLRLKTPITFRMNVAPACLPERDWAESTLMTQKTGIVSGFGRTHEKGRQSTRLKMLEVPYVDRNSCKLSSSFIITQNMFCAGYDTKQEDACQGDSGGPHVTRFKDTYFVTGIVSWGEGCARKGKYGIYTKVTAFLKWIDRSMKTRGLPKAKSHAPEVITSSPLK
F Xa, sequence (P00742 41-179 partner limits assumed): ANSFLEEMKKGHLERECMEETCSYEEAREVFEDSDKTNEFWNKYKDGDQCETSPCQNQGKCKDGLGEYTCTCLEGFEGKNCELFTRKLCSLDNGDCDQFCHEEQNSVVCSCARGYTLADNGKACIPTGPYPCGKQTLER
Excerpt: F Xa substrate: Bzl-Ile-Glu-Gly-Arg pNA (50% of the Glu as the methyl ester) (c=3 mmol/liter)

plasmin = plasmin (Homo sapiens, UniProt P00747); assay: Inhibitory action against plasmin, analogous procedure (substrate D-norvalylcyclohexylalanylarginyl paranitroanilide); assay type: biochemical; details: final inhibitor concentration 0.6 mmol/1
plasmin, sequence (P00747 581-810 limits assumed, species assumed): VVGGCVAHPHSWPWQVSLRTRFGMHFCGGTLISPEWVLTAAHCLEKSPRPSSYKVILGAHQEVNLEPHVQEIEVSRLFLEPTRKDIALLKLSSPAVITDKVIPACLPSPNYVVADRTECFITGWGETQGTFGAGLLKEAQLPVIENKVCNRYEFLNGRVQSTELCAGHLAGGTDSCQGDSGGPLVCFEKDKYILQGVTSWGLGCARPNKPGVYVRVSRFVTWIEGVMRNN
plasmin, sequence (P00747 97-580 partner limits assumed, species assumed): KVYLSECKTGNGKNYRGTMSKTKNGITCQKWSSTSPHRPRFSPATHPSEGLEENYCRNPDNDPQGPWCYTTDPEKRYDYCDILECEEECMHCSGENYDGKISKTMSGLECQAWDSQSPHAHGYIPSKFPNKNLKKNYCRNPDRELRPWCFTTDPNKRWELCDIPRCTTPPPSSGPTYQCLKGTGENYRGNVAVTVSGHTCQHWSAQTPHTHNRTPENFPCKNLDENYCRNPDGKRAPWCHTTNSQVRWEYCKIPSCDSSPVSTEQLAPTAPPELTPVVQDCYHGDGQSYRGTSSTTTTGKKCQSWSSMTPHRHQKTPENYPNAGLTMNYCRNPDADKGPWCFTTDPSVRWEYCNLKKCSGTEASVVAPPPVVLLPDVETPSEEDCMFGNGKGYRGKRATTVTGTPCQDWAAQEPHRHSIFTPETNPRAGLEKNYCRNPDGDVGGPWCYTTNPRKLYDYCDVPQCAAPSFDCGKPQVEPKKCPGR
Excerpt: (plasmin substrate: D-norvalylcyclohexylalanylarginyl paranitroanilide (c=3 mmol/l)).

Compound: Cl.Cl.NC(N)=NCCC[C@@H](COC(=O)c1ccc([N+](=O)[O-])cc1)NC(=O)[C@@H]1CCCN1C(=O)[C@H](N)Cc1ccccc1 [D-Phe-Pro-argininol-4-nitrobenzoate dihydrochloride]
inhibitory action on thrombin (in words) (human α-thrombin): approximately corresponded to that of 4-carboxyethylphenylε-guanidinocaproate

Compound: CC(=O)O.CC(C)C[C@H](NC(=O)OC(C)(C)C)C(=O)N[C@@H](CC(C)C)C(=O)N[C@H](C=O)CCCNC(=N)N.O [Boc-Leu-Leu-argininal . acetic acid . H2 O]
inhibition of acrosin (in words) [1]: very active inhibitor

The next lines start with the values.

action in the thrombin inhibition test, times less than that of H-D-Phe-Pro-Arg CH2 --OH (human α-thrombin; relative to H-D-Phe-Pro-Arg CH2 --OH): about 1,000 times
Compound: CC(C)(C)OC(=O)N[C@H](Cc1ccccc1)C(=O)N1CCC[C@H]1C(=O)N[C@H](CO)CCCNC(=N)N [Boc-D-Phe-Pro-Arg CH2 --OH]

F X a inhibition (F Xa): 49 % inhibition | Plasmin inhibition (plasmin): 67 % inhibition | inhibitory action on thrombin (in words) (human α-thrombin): potent inhibition of thrombin | inhibitory action on thrombin (in words) (human α-thrombin; listed as D-phenylalanyl-L-prolyl-L-argininol): especially strong
Compound: N=C(N)NCCC[C@@H](CO)NC(=O)[C@@H]1CCCN1C(=O)[C@H](N)Cc1ccccc1.O=C(O)C(F)(F)F.O=C(O)C(F)(F)F [D-Phe-Pro-argininol ditrifluoroacetate, D-Phe-Pro-Arg-CH2 OH×2CF3 COOH]

IC50 (human α-thrombin): 3.65 ± 0.05 µM
Compound: N=C(N)NCCCCCC(=O)Oc1ccc(CCC(=O)O)cc1 [4-carboxyethylphenyl ε-guanidinocaproate, reference compound]

— patent US4713369A, “Oligopeptidylargininol derivatives and their homologs, a process for their preparation, their use and agents containing them” (Behringwerke Aktiengellschaft, priority 1985, dated 1987)
